Among the data in patent publication US11976061B2, “Preparation of benzimidazolone derivatives as novel diacylglyceride O-acyltransferase 2 inhibitors” (Merck Sharp & Dohme LLC, priority 2020, dated 2024) are IC50 values, retold here.

Each structure is given as a SMILES string.

In one assay the target is T1, human DGAT2 (hDGAT2) (Homo sapiens, UniProt Q96PD7).
T1 construct: made in house; host or cells: Sf-9 insect cells (baculovirus), membrane fraction
T1 sequence (Q96PD7 1-388): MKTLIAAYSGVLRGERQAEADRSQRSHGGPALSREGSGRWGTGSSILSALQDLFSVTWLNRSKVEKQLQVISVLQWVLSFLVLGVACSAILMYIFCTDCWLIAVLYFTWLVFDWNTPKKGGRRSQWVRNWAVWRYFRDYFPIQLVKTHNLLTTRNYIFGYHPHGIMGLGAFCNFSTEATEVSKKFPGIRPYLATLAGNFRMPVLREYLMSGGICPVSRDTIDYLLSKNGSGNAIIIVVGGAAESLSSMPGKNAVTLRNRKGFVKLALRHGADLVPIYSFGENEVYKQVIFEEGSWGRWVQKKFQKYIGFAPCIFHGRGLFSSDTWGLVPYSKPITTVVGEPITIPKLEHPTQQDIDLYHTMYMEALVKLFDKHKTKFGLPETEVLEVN
In words: DGAT2 Enzymatic Activity Assay. It is filed as biochemical. The note with it: membrane prep of Sf-9 cells expressing hDGAT2; 25 μM diolein, 5 μM 13C oleoyl-CoA; 13C18-triolein by LC/MS/MS; read-out: DGAT2 IC50. The method, then:
Insect Cell Expression and Membrane Preparation
Sf-9 insect cells were maintained in Grace's insect cell culture medium with 10% heated-inactivated fetal bovine serum, 1% Pluronic F-68 and 0.14 μg/ml Kanamycine sulfate at 27° C. in a shaker incubator. After infection with untagged baculovirus expressing human DGAT2 (hDGAT2) at multiplicity of infection (MOI) 3 for 48 hours, cells were harvested. Cell pellets were suspended in buffer containing 10 mM Tris-HCl pH 7.5, 1 mM EDTA, 250 mM sucrose and Complete Protease Inhibitor Cocktail (Sigma Aldrich), and sonicated on ice. Cell debris were removed by centrifugation at 2000×g for 15 minutes. Membrane fractions were isolated by ultracentrifugation (100,000×g), resuspended in the same buffer, and frozen (−80° C.) for later use. The protein concentration was determined with the Pierce™ BCA Protein Assay Kit (Thermo Fisher Scientific). Expression of protein levels was analyzed by immunoblotting with rabbit anti-DGAT2 antibody (Abcam, ab102831) and donkey anti-rabbit IgG H&L Alexa Fluor® 647 (Abcam, ab150075) followed by detection using Typhoon FLA9000 (GE Healthcare).
LC/MS/MS analyses were performed using Thermal Fisher's LX4-TSQ Vantage system. This system consists of an Agilent binary high-performance liquid chromatography (HPLC) pump and a TSQ Vantage triple quadrupole MS/MS instrument. For each sample, 2 μL samples from the top organic layer of in-plate liquid-liquid extraction were injected onto a Thermo Betabasic C4 column (2.1 mm×20 mm, 5 μm particle size). The samples were then eluted using the following conditions; mobile phase: Isopropanol:acetonitrile/10 mM ammonium formate=50/35/15 (v/v/v), flow rate: 0.8 mL/min, temperature: 25° C. Data was acquired in positive mode using a heated electrospray ionization (HESI) interface. The operational parameters for the TSQ Vantage MS/MS instrument were a spray voltage of 3000 V, capillary temperature of 280° C., vaporizer temperature 400° C., sheath gas 45 arbitrary unit, Aux gas 10 arbitrary units, S-lens 165 and collision gas 1.0 mTorr. […] (SRM) chromatograms of ^13C18-triolein (Q1: 920.8>Q3: 621.3) and internal standard ^13C21-triolein (Q1: 923.8>Q3: 617.3) were collected for 33 sec. The peak area was integrated by Xcalibur Quan software. The ratio between the ^13C18triolein generated in the reaction and spiked in internal standard ^13C21-triolein was used to generate percentage inhibition and IC50 values. Compound percentage inhibition was calculated by the following formula: Inhibition %=1−[(compound response−low control)/(high control−low control)]×100%. Potent compounds were titrated and IC50 were calculated by 4 parameter sigmoidal curve fitting formula.
DGAT2 Enzymatic Activity Assay
DGAT2 activity was determined by measuring the amount of enzymatic product ^13C18-triolein (^13C-1,2,3-Tri(cis-9-octadecenoyl)glycerol) using the membrane prep mentioned above. The assay was carried out in ABgene 384-well assay plates in a final volume of 25 μL at rt. The assay mixture contained the following: assay buffer (100 mM Tris·Cl, pH 7.0, 20 mM MgCl2, 5% ethanol), 25 μM of diolein, 5 μM of ^13C oleoyl-CoA and 8 ng/μL of DGAT2 membrane.
On to `CC(C)Oc1cccc(-n2c(=O)n(C(C)C)c3cc(C(=O)NC4(C)CS(=O)(=O)C4)cnc32)c1` [Example 100, 3-(3-isopropoxyphenyl)-1-isopropyl-N-(3-methyl-1,1-dioxo-thietan-3-yl)-2-oxo-imidazo[4,5-b]pyridine-6-carboxamide], for which the IC50 turned out to be 692 nM.

For the compound `CCOc1cc(-n2c(=O)n(C(C)C(C)(C)O)c3cc(C(=O)NC4(C)CCS(=O)(=O)CC4)ccc32)c(F)cn1` (single isomer, unassigned) [Example 69b, 1-(2-ethoxy-5-fluoropyridin-4-yl)-3-(3-hydroxy-3-methylbutan-2-yl)-N-(4-methyl-1,1-dioxidotetrahydro-2H-thiopyran-4-yl)-2-oxo-2,3-dihydro-1H-benzo[d]imidazole-5-carboxamide], the IC50 came out at 3.9 nM.

For `CCOc1cc(-n2c(=O)n(C(C)C(C)(C)O)c3cc(C(=O)NC4(C)CS(=O)(=O)C4)ccc32)c(F)cn1` (single isomer, unassigned) [Example 78b, 1-(2-ethoxy-5-fluoropyridin-4-yl)-3-(3-hydroxy-3-methylbutan-2-yl)-N-(3-methyl-1,1-dioxidothietan-3-yl)-2-oxo-2,3-dihydro-1H-benzo[d]imidazole-5-carboxamide], the concentration for half-maximal inhibition (IC50) came to 13 nM. Still for that read-out and setting: the same measure for `CC(n1c(=O)n(-c2cc(OCC(F)F)ccc2F)c2ccc(C(=O)NC3(C)CCS(=O)(=O)CC3)cc21)C(C)(C)O` (single isomer, unassigned) [Example 73a, 1-(5-(2,2-difluoroethoxy)-2-fluorophenyl)-3-(3-hydroxy-3-methylbutan-2-yl)-N-(4-methyl-1,1-dioxidotetrahydro-2H-thiopyran-4-yl)-2-oxo-2,3-dihydro-1H-benzo[a]imidazole-5-carboxamide]: 2.6 nM; for `CC(C)n1c(=O)n(-c2cccc(OC(F)F)c2)c2ccc(C(=O)N[C@@]3(C)CCS(=O)(=O)C3)cc21` [Example 32, 1-[3-(difluoromethoxy)phenyl]-3-isopropyl-N-[(3S)-3-methyl-1,1-dioxo-thiolan-3-yl]-2-oxo-benzimidazole-5-carboxamide]: 96 nM.

The same assay, now with this note: membrane prep of Sf-9 cells expressing hDGAT2; 25 μM diolein, 5 μM 13C oleoyl-CoA; 13C18-triolein by LC/MS/MS; read-out: Human DGAT2 IC50.
Take `CC(C)(O)Cn1c(=O)n(-c2cccc(OC(F)F)c2)c2ccc(C(=O)NC3(C)CS(=O)(=O)C3)cc21` [Example 64, 1-(3-(difluoromethoxy)phenyl)-3-(2-hydroxy-2-methylpropyl)-N-(3-methyl-1,1-dioxidothietan-3-yl)-2-oxo-2,3-dihydro-1H-benzo[d]imidazole-5-carboxamide]: the IC50 worked out at 35.6 nM. Take `CC(C)n1c(=O)n(-c2cc(OC(F)F)ncc2F)c2cc(F)c(C(=O)NC3(C)CCS(=O)(=O)CC3)cc21` [Example 122, 1-(2-(difluoromethoxy)-5-fluoropyridin-4-yl)-6-fluoro-3-isopropyl-N-(4-methyl-1,1-dioxidotetrahydro-2H-thiopyran-4-yl)-2-oxo-2,3-dihydro-1H-benzo[d]imidazole-5-carboxamide]: the IC50 was 56 nM.

With `C[C@@]1(NC(=O)c2ccc3c(c2)n(-c2ccc(F)cc2)c(=O)n3-c2ccc(F)cc2)CCS(=O)(=O)C1` [Example 1, (R)-1,3-bis(4-fluorophenyl)-N-(3-methyl-1,1-dioxidotetrahydrothiophen-3-yl)-2-oxo-2,3-dihydro-1H-benzo[d]imidazole-5-carboxamide], the IC50 is 573 nM. Still for that read-out and setting: to `CC(C)n1c(=O)n(-c2cccc(OC(F)(F)C(F)F)c2)c2ncc(C(=O)NC3(C)CCS(=O)(=O)CC3)cc21` [Example 87, 1-isopropyl-N-(4-methyl-1,1-dioxo-thian-4-yl)-2-oxo-3-[3-(1,1,2,2-tetrafluoroethoxy)phenyl]imidazo[4,5-b]pyridine-6-carboxamide] belongs 20 nM; to `CC(C)n1c(=O)n(-c2cccc(OC(F)F)c2)c2c(F)cc(C(=O)NC3(C)CS(=O)(=O)C3)cc21` [Example 108, 1-[3-(difluoromethoxy)phenyl]-7-fluoro-3-isopropyl-N-(3-methyl-1,1-dioxo-thietan-3-yl)-2-oxo-benzimidazole-5-carboxamide], 12 nM.
